SMILES strings stand for the structures.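 Results reflect a 48-hour exposure of cells in 96-well plates to compound at five concentrations. GI50: concentration for 50% inhibition of growth. TGI denotes the concentration required for complete inhibition of growth.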 Some results are limits rather than exact numbers.

Test systems include K-562 leukemia; LOX IMVI melanoma; UO-31 renal; COLO 205 colon; U251 CNS; SR leukemia; HCT-15 colon; 786-0 renal; SF-295 CNS; MDA-MB-435.
Common to all, as to experiment: NCI tumour cell line growth inhibition, 48 h

Regarding `COc1cc2nc(N3CCCN(C)CC3)nc(NC3CCN(Cc4ccccc4)CC3)c2cc1OC`, the GI50 was 1.47 µM in the assay on K-562 leukemia; 1.68 µM with LOX IMVI melanoma; 1.69 µM with UO-31 renal; 1.84 µM in the assay with COLO 205 colon; 2.22 µM in the assay on U251 CNS; 2.23 µM with SR leukemia. Besides, the GI50 in the assay with HCT-15 colon is 1.83 µM; in the assay on 786-0 renal, 1.84 µM; in the assay with SF-295 CNS, 1.81 µM; in the assay with MDA-MB-435, 1.74 µM. Also, the TGI in the assay on K-562 leukemia is 4.56 µM; in the assay on LOX IMVI melanoma, 3.28 µM; in the assay with UO-31 renal, 3.2 µM; with COLO 205 colon, 3.51 µM; in the assay with U251 CNS it was 5.96 µM; in the assay with SR leukemia it was 6.66 µM. Also, the TGI with HCT-15 colon came out at 4.41 µM; with 786-0 renal it was 5.2 µM; with SF-295 CNS, 3.46 µM; in the assay on MDA-MB-435 it was 3.22 µM.

Consider `COc1ccc2c(c1)CCC1C2CC[C@@]2(C)C1CC[C@@H]2NC(=O)Cc1ccc(O)c(O)c1` (some centres not stated), for which the GI50 was 4.31 µM in the assay with K-562 leukemia; 8.15 µM in the assay with LOX IMVI melanoma; 3.56 µM with UO-31 renal; 3.34 µM in the assay on COLO 205 colon; 4.94 µM in the assay with U251 CNS; 3.46 µM with SR leukemia. In addition, the GI50 is 3.74 µM in the assay with HCT-15 colon, 5 µM in the assay with 786-0 renal, 13.4 µM with SF-295 CNS and 4.63 µM with MDA-MB-435. For the same compound, the TGI in the assay with K-562 leukemia is greater than 100 µM; with LOX IMVI melanoma, 20.6 µM; in the assay on UO-31 renal, 15.2 µM; in the assay on COLO 205 colon, 12.5 µM; with U251 CNS it was 18.8 µM; in the assay on SR leukemia, 18.7 µM. Besides, the TGI in the assay with HCT-15 colon came to 16.7 µM; with 786-0 renal, 17.7 µM; in the assay on SF-295 CNS, 32.1 µM; in the assay on MDA-MB-435 it was 17.2 µM.

With `Cc1ccc2c(C(C[N+](=O)[O-])c3ccccc3)c(-c3ccccc3)[nH]c2c1` (configuration not stated), the GI50 is 7.14 µM in the assay on K-562 leukemia; 38.2 µM in the assay on LOX IMVI melanoma; 15.4 µM with UO-31 renal; 21.8 µM in the assay on COLO 205 colon; 32 µM in the assay with U251 CNS; 4.54 µM in the assay with SR leukemia. Besides, the GI50 in the assay on HCT-15 colon is 20.7 µM; with 786-0 renal it was 40.3 µM; in the assay with SF-295 CNS it was 36.7 µM; in the assay on MDA-MB-435 it was 4.1 µM. Further, the TGI in the assay on K-562 leukemia, in the assay with LOX IMVI melanoma, with UO-31 renal, in the assay on COLO 205 colon, in the assay on U251 CNS and in the assay with SR leukemia was greater than 95 µM throughout. Besides, the TGI in the assay on HCT-15 colon is greater than 95 µM; in the assay on 786-0 renal it was greater than 95 µM; in the assay with SF-295 CNS it was greater than 95 µM; in the assay on MDA-MB-435, 29.2 µM.

Regarding `NC(=O)c1cc(N2CC2)c([N+](=O)[O-])cc1[N+](=O)[O-]`, the GI50 with K-562 leukemia, with LOX IMVI melanoma, in the assay on UO-31 renal, in the assay on COLO 205 colon, with U251 CNS and in the assay with 786-0 renal was greater than 200 µM in each case. The GI50 with SF-295 CNS was greater than 200 µM. For the same compound, the TGI in the assay with K-562 leukemia, in the assay on LOX IMVI melanoma, in the assay with UO-31 renal, in the assay with COLO 205 colon, in the assay with U251 CNS and in the assay on SR leukemia was greater than 200 µM throughout. Moreover, the TGI in the assay on HCT-15 colon, in the assay with 786-0 renal, in the assay with SF-295 CNS and with MDA-MB-435 was greater than 200 µM in each case.

With `CC1(C)N=C(N)N=C(N)N1c1ccc(CNC(=O)Nc2ccc(S(=O)(=O)F)c(Cl)c2)c(Cl)c1`, the GI50 in the assay with K-562 leukemia is 0.257 µM; in the assay with LOX IMVI melanoma, 0.396 µM; with UO-31 renal, 53.7 µM; with COLO 205 colon it was 0.867 µM; with U251 CNS, 0.51 µM; in the assay on SR leukemia, 0.167 µM. In addition, the GI50 is 4.87 µM in the assay on HCT-15 colon, 0.872 µM with 786-0 renal, 5.41 µM in the assay on SF-295 CNS and 0.183 µM in the assay on MDA-MB-435. Further, the TGI with K-562 leukemia, in the assay on LOX IMVI melanoma, with UO-31 renal, in the assay on COLO 205 colon, with U251 CNS and in the assay with SR leukemia was greater than 100 µM throughout. The TGI in the assay on HCT-15 colon, in the assay on 786-0 renal, in the assay on SF-295 CNS and in the assay with MDA-MB-435 was greater than 100 µM each time.

In the case of `NCCCCC(NC(=O)C(N)CCCN=C(N)N)C(=O)NC(CCCCN)C(=O)NC(CCCN=C(N)N)C(=O)NC(CCCN=C(N)N)C(=O)NC(CCC(N)=O)C(=O)NC(CCCN=C(N)N)C(=O)NC(CCCN=C(N)N)C(=O)NC(CCCN=C(N)N)C(=O)NCC(=O)NCC(=O)O` (configuration not stated), the GI50 in the assay on K-562 leukemia, in the assay with LOX IMVI melanoma, in the assay on UO-31 renal, in the assay with COLO 205 colon, in the assay with U251 CNS and in the assay with SR leukemia was greater than 50 µM each time. Moreover, the GI50 in the assay on HCT-15 colon, in the assay on 786-0 renal, in the assay with SF-295 CNS and with MDA-MB-435 was greater than 50 µM each time. The TGI in the assay on K-562 leukemia, with LOX IMVI melanoma, in the assay on UO-31 renal, in the assay on COLO 205 colon, in the assay on U251 CNS and in the assay with SR leukemia was greater than 50 µM in each case. Besides, the TGI in the assay on HCT-15 colon, in the assay on 786-0 renal, with SF-295 CNS and in the assay on MDA-MB-435 was greater than 50 µM in each case.

As for `Cc1c(Cn2c(C)nc3c(C(=O)O)cc(N4CCOCC4)cc32)cccc1C(F)(F)F`, the GI50 is greater than 77.2 µM with K-562 leukemia; 60.7 µM with LOX IMVI melanoma; 3.46 µM in the assay on UO-31 renal; 49.2 µM in the assay with COLO 205 colon; 49.5 µM in the assay with U251 CNS; 51.3 µM in the assay on SR leukemia. Also, the GI50 was 4.58 µM in the assay on HCT-15 colon, 24.7 µM with 786-0 renal, 11 µM with SF-295 CNS and 66 µM in the assay on MDA-MB-435. Further, the TGI was greater than 100 µM in the assay with K-562 leukemia; greater than 100 µM with LOX IMVI melanoma; greater than 67.6 µM in the assay on UO-31 renal; greater than 100 µM in the assay with COLO 205 colon; greater than 100 µM in the assay with U251 CNS; greater than 100 µM in the assay on SR leukemia. The TGI in the assay on HCT-15 colon is greater than 100 µM; with 786-0 renal it was greater than 100 µM; with SF-295 CNS it was greater than 84.4 µM; in the assay with MDA-MB-435 it was greater than 100 µM.

The values above are taken from PubChem BioAssay (NCI).
